A word on the IC50: it is the concentration that gives 50% inhibition. Low readings indicate greater potency in that assay, high ones weaker potency in that assay.

Structures are written as SMILES.

The target of one assay is Estrogen receptor beta (Homo sapiens, UniProt Q92731).
The target of the next assay is T1, Estrogen receptor (Homo sapiens, UniProt P03372).
T1 sequence (P03372 whole entry): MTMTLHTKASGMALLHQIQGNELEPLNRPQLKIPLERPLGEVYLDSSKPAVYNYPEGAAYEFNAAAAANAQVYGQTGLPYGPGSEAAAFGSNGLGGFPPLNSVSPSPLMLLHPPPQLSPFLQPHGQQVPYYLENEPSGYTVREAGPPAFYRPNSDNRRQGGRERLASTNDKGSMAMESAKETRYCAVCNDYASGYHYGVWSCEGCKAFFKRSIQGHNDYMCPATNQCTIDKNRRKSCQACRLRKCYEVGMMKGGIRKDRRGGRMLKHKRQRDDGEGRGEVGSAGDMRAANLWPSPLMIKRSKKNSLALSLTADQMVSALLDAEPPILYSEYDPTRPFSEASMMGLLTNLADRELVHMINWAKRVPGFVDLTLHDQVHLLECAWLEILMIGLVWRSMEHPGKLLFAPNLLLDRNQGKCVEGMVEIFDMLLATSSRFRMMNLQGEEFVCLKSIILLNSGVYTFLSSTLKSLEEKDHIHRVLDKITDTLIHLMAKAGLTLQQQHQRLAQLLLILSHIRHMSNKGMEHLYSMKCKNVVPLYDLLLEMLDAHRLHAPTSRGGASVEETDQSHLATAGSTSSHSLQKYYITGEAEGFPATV

Estrogen receptor beta, sequence (Q92731 whole entry): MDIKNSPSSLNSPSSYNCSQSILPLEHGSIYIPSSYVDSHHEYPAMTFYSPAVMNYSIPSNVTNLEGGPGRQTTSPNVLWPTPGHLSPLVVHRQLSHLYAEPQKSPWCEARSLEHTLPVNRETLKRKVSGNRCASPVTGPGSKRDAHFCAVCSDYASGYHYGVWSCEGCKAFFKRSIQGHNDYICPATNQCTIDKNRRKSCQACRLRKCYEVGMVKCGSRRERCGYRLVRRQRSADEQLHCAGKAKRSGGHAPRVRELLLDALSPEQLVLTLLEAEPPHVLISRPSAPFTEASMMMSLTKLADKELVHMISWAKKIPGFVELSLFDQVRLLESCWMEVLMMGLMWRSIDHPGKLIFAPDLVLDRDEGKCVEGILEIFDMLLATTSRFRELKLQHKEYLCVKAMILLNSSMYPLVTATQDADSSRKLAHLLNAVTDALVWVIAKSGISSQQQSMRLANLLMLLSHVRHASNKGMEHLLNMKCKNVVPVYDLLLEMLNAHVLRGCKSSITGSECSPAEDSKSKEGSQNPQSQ
Description for Estrogen receptor beta: Binding affinity against human estrogen receptor beta (ER beta) in competitive binding assay

On to `C[C@@H]1C(=O)c2ccc(O)cc2O[C@@H]1c1ccc(OCCN2CCCCC2)cc1`, for which the concentration for half-maximal inhibition (IC50) at Estrogen receptor beta was 5640 nM; on Estrogen receptor, 3560 nM.
With `CC(C)[C@@H]1C(=O)c2ccc(O)cc2O[C@@H]1c1ccc(OCCN2CCCCC2)cc1`, the IC50 was determined as 1200 nM against Estrogen receptor beta and 89 nM on Estrogen receptor.
With `O=C1c2ccc(O)cc2O[C@H](c2ccc(OCCN3CCCCC3)cc2)[C@H]1c1ccc(O)cc1`, the results for the IC50 against Estrogen receptor beta and at Estrogen receptor were 1950 nM and 49 nM, respectively.
For `O=C1c2ccccc2O[C@H](c2ccc(OCCN3CCCCC3)cc2)[C@@H]1c1ccc(O)cc1`, the values for the half-maximal inhibitory concentration (IC50) at Estrogen receptor beta and at Estrogen receptor were 510 nM and 179 nM, respectively.
On the same counts, the results for `O=C1c2ccc(O)cc2O[C@H](c2ccc(OCCN3CCCCC3)cc2)[C@@H]1c1ccc(O)cc1` are 2050 nM and 31 nM.
For the compound `CCCc1cc(O)cc2c1C(=O)[C@@H](c1ccc(O)cc1)[C@@H](c1ccc(OCCN3CCCCC3)cc1)O2`, the results for the IC50 against Estrogen receptor beta and at Estrogen receptor were 207 nM and 652 nM, respectively.
Regarding `Oc1ccc([C@@H]2Cc3ccc(O)cc3O[C@@H]2c2ccc(OCCN3CCCCC3)cc2)cc1`, the IC50 turned out to be 8.9 nM against Estrogen receptor beta and 6.7 nM at Estrogen receptor.
As for `O=C1c2ccc(O)cc2O[C@H](c2ccc(OCCN3CCCCC3)cc2)[C@@H]1c1ccccc1`, the results for the IC50 against Estrogen receptor beta and against Estrogen receptor were 10000 nM and 531 nM, respectively.
On the same counts, the results for `C[C@@H]1C(=O)c2c(O)cc(O)cc2O[C@@H]1c1ccc(OCCN2CCCCC2)cc1` are 1200 nM and 551 nM.
In the case of `Cc1cc(O)cc2c1C(=O)[C@@H](c1ccc(O)cc1)[C@@H](c1ccc(OCCN3CCCCC3)cc1)O2`, the IC50 against Estrogen receptor beta came out at 546 nM; at Estrogen receptor, 14 nM.
In the case of `O=C1c2ccc(O)cc2O[C@H](c2ccc(O)cc2)[C@@H]1c1ccc(O)cc1`, the 50% inhibitory concentration (IC50) at Estrogen receptor beta was found to be 598 nM; at Estrogen receptor it was 490 nM.
With `CC(C)[C@H]1C(=O)c2ccc(O)cc2O[C@@H]1c1ccc(OCCN2CCCCC2)cc1`, the values for the IC50 against Estrogen receptor beta and against Estrogen receptor were 930 nM and 109 nM, respectively.
On the same counts, the results for `COc1cc(O)ccc1[C@@H]1C(=O)c2ccc(O)cc2O[C@@H]1c1ccc(OCCN2CCCCC2)cc1` are 1360 nM and 149 nM.
In the case of `COc1cc([C@@H]2C(=O)c3ccc(O)cc3O[C@@H]2c2ccc(OCCN3CCCCC3)cc2)ccc1O`, the IC50 was over 10000 nM against Estrogen receptor beta and 413 nM at Estrogen receptor.
In the same order, the values of `Cc1cc([C@@H]2C(=O)c3ccc(O)cc3O[C@@H]2c2ccc(OCCN3CCCCC3)cc2)cc(C)c1O` are over 10000 nM and 1050 nM.
`O=C1c2c(F)cc(O)cc2O[C@H](c2ccc(OCCN3CCCCC3)cc2)[C@@H]1c1ccc(O)cc1`: the IC50 against Estrogen receptor beta was 5390 nM; at Estrogen receptor, 105 nM.
In the same order, the values of `O/N=C1\c2ccc(O)cc2O[C@H](c2ccc(OCCN3CCCCC3)cc2)[C@@H]1c1ccc(O)cc1` are 8610 nM and 1040 nM.
For the compound `CCc1cc(O)cc2c1C(=O)[C@@H](c1ccc(O)cc1)[C@@H](c1ccc(OCCN3CCCCC3)cc1)O2`, the 50% inhibitory concentration (IC50) at Estrogen receptor beta was determined as 152 nM; against Estrogen receptor, 68 nM.
In the same order, the values of `Oc1ccc([C@H]2[C@@H](c3ccc(OCCN4CCCCC4)cc3)Oc3cc(O)ccc3[C@@H]2O)cc1` are 7000 nM and 929 nM.
Consider `CCCCCc1cc(O)cc2c1C(=O)[C@@H](c1ccc(O)cc1)[C@@H](c1ccc(OCCN3CCCCC3)cc1)O2`, for which the results for the IC50 against Estrogen receptor beta and at Estrogen receptor were 454 nM and 71 nM, respectively.
In the same order, the values of `O=C1c2c(Cl)cc(O)cc2O[C@H](c2ccc(OCCN3CCCCC3)cc2)[C@@H]1c1ccc(O)cc1` are 1270 nM and 58 nM.
For `C[C@H]1C(=O)c2ccc(O)cc2O[C@@H]1c1ccc(OCCN2CCCCC2)cc1`, the IC50 is over 10000 nM at Estrogen receptor beta and 1410 nM on Estrogen receptor.

The values are drawn from ChEMBL document CHEMBL1147620, “Estrogen receptor ligands. Part 1: The discovery of flavanoids with subtype selectivity” (Bioorg Med Chem Lett, 2004).
